Data from ChEMBL document CHEMBL6153137, “Design, Synthesis, and Biological Evaluation of Novel Orally Available Covalent CDK12/13 Dual Inhibitors for the Treatment of Tumors” (J Med Chem, 2025).
In brackets after ≈: the same amount, converted by molar mass.

Tests used:
[1] = Oral bioavailability in CD-1 mouse at 5 mg/kg measured for 24 hrs by LC-MS/MS analysis; type: ADME, organism-based; details: in vivo
[2] = molecular target: Cyclin-dependent kinase 13/Cyclin-K (Homo sapiens, UniProt Q14004); assay: Inhibition of CDK13/Cyclin K (unknown origin) using pS7-CTD peptide and ATP as substrate incubated for 120 mins by ADP-Glo reagent based luminescence analysis; type: protein-complex assay
Sequence of Cyclin-dependent kinase 13/Cyclin-K (Q14004 whole entry): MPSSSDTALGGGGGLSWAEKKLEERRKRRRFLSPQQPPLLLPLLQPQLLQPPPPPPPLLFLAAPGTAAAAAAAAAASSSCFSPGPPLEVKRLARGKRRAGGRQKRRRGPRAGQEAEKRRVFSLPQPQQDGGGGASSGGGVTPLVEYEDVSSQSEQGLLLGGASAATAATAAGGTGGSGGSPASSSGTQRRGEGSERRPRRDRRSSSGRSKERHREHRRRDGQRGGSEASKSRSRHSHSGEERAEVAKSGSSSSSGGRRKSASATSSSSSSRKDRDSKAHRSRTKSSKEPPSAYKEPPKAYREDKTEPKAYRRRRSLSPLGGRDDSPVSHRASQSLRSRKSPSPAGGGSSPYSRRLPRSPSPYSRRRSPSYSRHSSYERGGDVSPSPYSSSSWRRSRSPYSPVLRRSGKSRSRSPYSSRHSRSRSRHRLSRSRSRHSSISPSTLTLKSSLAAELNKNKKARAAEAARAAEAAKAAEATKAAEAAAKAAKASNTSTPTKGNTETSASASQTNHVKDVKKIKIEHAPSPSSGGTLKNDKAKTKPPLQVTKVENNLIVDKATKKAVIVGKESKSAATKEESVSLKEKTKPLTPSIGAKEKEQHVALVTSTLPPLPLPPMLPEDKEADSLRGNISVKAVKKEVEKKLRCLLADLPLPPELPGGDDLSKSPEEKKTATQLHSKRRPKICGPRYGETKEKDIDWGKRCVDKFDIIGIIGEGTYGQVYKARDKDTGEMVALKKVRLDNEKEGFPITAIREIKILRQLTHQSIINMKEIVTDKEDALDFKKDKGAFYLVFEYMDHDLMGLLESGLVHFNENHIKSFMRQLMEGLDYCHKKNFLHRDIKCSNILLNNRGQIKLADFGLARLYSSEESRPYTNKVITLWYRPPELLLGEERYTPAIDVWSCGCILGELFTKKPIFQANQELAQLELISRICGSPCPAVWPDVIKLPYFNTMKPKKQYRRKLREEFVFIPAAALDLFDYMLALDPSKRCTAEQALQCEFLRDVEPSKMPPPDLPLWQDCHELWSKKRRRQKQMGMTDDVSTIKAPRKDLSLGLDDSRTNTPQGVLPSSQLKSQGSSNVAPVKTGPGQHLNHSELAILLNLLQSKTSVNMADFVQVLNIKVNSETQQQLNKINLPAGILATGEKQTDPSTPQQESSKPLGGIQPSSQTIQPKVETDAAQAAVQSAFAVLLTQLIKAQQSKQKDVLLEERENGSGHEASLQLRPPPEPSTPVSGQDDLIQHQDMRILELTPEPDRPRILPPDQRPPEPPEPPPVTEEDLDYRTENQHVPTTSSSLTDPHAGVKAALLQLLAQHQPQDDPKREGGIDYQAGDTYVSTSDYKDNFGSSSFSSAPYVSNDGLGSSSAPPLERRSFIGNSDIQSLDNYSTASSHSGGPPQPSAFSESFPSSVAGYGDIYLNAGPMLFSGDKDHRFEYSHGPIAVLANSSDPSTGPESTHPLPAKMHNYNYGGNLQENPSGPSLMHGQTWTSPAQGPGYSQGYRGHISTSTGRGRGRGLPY
Sequence of Cyclin-dependent kinase 13/Cyclin-K (O75909 whole entry, further chain): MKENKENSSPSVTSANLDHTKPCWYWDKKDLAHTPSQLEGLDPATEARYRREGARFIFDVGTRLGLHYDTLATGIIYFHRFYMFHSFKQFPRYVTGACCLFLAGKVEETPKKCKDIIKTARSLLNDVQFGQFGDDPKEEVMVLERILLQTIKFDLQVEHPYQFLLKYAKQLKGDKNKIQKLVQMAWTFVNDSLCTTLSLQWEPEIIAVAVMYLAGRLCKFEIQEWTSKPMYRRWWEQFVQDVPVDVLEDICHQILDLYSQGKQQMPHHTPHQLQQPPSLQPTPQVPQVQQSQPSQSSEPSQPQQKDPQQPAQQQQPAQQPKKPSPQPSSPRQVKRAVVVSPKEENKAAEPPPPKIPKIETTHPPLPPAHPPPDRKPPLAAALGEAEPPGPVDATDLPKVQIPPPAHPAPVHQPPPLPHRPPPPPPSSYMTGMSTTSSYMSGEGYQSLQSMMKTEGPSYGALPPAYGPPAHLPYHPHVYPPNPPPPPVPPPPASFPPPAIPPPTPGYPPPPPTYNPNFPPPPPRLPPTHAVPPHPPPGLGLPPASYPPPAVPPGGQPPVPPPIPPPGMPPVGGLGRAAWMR

[3] = Volume of distribution at steady state in CD-1 mouse at 1 mg/kg, iv measured for 24 hrs by LC-MS/MS analysis; type: ADME, organism-based; details: in vivo, read-out: Vdss
SUM149PT = assay: Antiproliferative activity against human SUM149PT cells assessed as inhibition of cell growth incubated for 7 days by CellTiter-Glo reagent based luminescence analysis; type: functional; details: 168 h
[4] = GSH reactivity assessed as half life to adduct formation at 0.1 uM by LC-MS/MS analysis; type: physicochemical
[5] = GSH reactivity assessed as half life to adduct formation at 10 uM by LC-MS/MS analysis; type: physicochemical
[6] = Cmax in CD-1 mouse at 5 mg/kg, po measured for 24 hrs by LC-MS/MS analysis; type: ADME, organism-based; details: in vivo
[7] = AUC (0 to infinity) in CD-1 mouse at 5 mg/kg, po by LC-MS/MS analysis; type: ADME, organism-based; details: in vivo
[8] = GSH reactivity assessed as half life to adduct formation at 1 uM by LC-MS/MS analysis; type: physicochemical
[9] = Half life in CD-1 mouse at 5 mg/kg, po measured for 24 hrs by LC-MS/MS analysis; type: ADME, organism-based; details: in vivo
[10] = Clearance in CD-1 mouse at 1 mg/kg, iv measured for 24 hrs by LC-MS/MS analysis; type: ADME, organism-based; details: in vivo
[11] = AUC (0 to infinity) in CD-1 mouse at 1 mg/kg, iv by LC-MS/MS analysis; type: ADME, organism-based; details: in vivo
CDK12/Cyclin K = CDK12/Cyclin K (Homo sapiens, UniProt Q9NYV4); assay: Inhibition of CDK12/Cyclin K (unknown origin) using pS7-CTD peptide and ATP as substrate incubated for 120 mins by ADP-Glo reagent based luminescence analysis; type: protein-complex assay
Sequence of CDK12/Cyclin K (O75909 whole entry): as the sequence (O75909 whole entry, further chain) above
Sequence of CDK12/Cyclin K (Q9NYV4 whole entry): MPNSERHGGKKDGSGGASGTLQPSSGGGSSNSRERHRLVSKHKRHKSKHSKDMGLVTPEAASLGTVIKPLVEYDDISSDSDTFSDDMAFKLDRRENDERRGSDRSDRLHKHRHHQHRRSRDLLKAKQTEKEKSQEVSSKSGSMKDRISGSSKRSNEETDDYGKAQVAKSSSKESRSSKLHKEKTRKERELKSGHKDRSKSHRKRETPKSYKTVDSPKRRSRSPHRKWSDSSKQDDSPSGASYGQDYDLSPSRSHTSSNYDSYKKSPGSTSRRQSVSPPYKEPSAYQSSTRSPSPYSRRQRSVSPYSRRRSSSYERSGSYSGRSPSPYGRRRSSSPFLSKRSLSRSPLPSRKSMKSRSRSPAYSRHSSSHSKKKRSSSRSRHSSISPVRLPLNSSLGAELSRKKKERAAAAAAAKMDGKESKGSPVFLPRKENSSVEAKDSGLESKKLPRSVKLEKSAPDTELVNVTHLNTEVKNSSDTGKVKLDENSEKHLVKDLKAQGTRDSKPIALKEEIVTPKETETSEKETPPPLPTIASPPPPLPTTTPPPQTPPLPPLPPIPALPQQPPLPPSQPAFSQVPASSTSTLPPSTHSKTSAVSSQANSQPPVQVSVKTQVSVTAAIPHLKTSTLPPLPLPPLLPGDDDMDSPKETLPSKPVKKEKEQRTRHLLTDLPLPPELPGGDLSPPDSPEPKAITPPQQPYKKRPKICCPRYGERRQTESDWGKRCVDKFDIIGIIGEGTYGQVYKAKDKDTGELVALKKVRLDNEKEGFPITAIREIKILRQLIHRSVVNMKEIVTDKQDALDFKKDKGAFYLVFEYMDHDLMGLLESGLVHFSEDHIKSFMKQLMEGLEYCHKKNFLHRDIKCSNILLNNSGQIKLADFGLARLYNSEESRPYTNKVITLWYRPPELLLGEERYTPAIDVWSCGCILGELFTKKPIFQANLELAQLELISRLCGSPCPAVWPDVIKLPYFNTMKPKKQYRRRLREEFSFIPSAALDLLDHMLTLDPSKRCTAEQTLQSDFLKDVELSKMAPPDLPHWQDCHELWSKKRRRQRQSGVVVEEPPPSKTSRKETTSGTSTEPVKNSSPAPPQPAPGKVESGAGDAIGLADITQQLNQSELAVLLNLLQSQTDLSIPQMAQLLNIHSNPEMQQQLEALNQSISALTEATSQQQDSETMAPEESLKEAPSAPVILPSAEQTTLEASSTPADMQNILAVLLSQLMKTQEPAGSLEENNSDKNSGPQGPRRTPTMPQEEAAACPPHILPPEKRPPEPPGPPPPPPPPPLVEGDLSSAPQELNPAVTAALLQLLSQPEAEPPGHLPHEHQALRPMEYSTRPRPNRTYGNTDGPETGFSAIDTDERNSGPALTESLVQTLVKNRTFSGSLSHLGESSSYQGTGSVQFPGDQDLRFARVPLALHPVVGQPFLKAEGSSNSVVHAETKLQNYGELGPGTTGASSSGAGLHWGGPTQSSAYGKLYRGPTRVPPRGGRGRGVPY

[12] = Kinetic solubility of the compound in phosphate buffer at pH 7.4 measured after 24 hrs by HPLC-UV analysis; type: physicochemical; details: read-out: Kinetic_solubility
[13] = Permeability of the compound in human Caco-2 cells at 2 uM incubated for 2 hrs by LC-MS/MS analysis; type: ADME, cell-based; details: read-out: permeability
[14] = Protein binding in mouse plasma assessed as free fraction at 400 uM incubated for 4 hrs by equilibrium dialysis method based LC-MS/MS analysis; type: ADME, cell-free
[15] = Toxicity against Balb/c mouse xenografted with human SUM149PT cells assessed as reduction in body weight at 20 mg/kg, po administered once daily via gavage for 2 days and measured after second dose; type: organism-based; set-up: scale not given: the % may be the effect or the level left; details: in vivo, 48 h, time 2 day
[16] = Protein binding in human plasma assessed as free fraction at 400 uM incubated for 4 hrs by equilibrium dialysis method based LC-MS/MS analysis; type: ADME, cell-free

In the case of `CC#CC(=O)N1CCc2c(ncnc2N2CC[C@@H](Nc3ncc(Cl)c(OC)n3)C2)C1`, the bioavailability [1] is reported as 11.2%, the IC50 [2] is reported as 0.235 µM and the Vd [3] is reported as 0.35 L/kg. It also gave an IC50 (SUM149PT) of 0.226 µM, a t1/2 [4] of 315.5 min and a t1/2 [5] of 379.4 min. The Cmax [6] was 101 ng/mL, the AUC(0-inf) [7] was 54.7 ng·h/mL and the t1/2 [8] was 324.4 min. For the same compound, the half-life [9] was 15 min, the clearance [10] was 179 mL/min/kg and the AUC(0-inf) [11] was 93.8 ng·h/mL.
`C=CC(=O)N1CCc2c(nc(N3CCCC3=O)nc2N2CC[C@@H](Nc3ncc(Cl)c(OC)n3)C2)C1` showed an IC50 [2] of 0.198 µM and an IC50 (SUM149PT) of 0.457 µM.
With `C=CC(=O)N1CCc2c(nc(N3CCOCC3)nc2N2CC[C@@H](Nc3ncc(Cl)c(OC)n3)C2)C1` the IC50 [2] was 0.165 µM and the IC50 (SUM149PT) was 0.532 µM.
With `C=CC(=O)N1CC2(CCC(C(=O)N3CC[C@@H](Nc4ncc(Cl)c(OC)n4)C3)CC2)C1` the IC50 (CDK12/Cyclin K) was 0.669 µM and the IC50 [2] was 0.756 µM.
`C=CC(=O)N1CCC(C(=O)N2CC[C@@H](Nc3ncc(Cl)c(OC)n3)C2)CC1` showed an IC50 (CDK12/Cyclin K) of 2.27 µM and an IC50 [2] of 1.76 µM.
Work on `C=CC(=O)N1CCc2c(nc(C)nc2N2CC[C@@H](Nc3ncc(Cl)c(OC)n3)C2)C1` yielded an IC50 [2] of 0.0748 µM and an IC50 (SUM149PT) of 0.155 µM.
`C=CC(=O)N1CCc2c(nc(OC)nc2N2CC[C@@H](Nc3ncc(Cl)c(OC)n3)C2)C1` showed an IC50 [2] of 0.0954 µM and an IC50 (SUM149PT) of 0.336 µM.
`C=CC(=O)Nc1ccc(C(=O)N2CC[C@@H](Nc3ncc(Cl)c(OC)n3)C2)cc1` gave an IC50 (CDK12/Cyclin K) of 0.0069 µM, a solubility kinetic at 24 h [12] of 48.2 µg/mL (≈ 120 µM) and a Papp at 2 h, 2 µM [13] of 2.87 ×10⁻⁶ cm/s. The fraction unbound at 4 h, 400 µM [14] was 0.038, the Activity [15] was 10% and the IC50 [2] was 0.00922 µM. For the same compound, the Vd [3] was 0.66 L/kg, the IC50 (SUM149PT) was 0.00264 µM and the t1/2 [4] was 39.7 min. The t1/2 [5] was 43 min, the t1/2 [8] was 40.2 min and the fraction unbound at 4 h, 400 µM [16] was 0.003.
For `C=CC(=O)NC12CC(C(=O)N3CC[C@@H](Nc4ncc(Cl)c(OC)n4)C3)(C1)C2`, the IC50 (CDK12/Cyclin K) was 2.41 µM and the IC50 [2] was 2.75 µM.
With `C=CC(=O)N1Cc2ccnc(N3CC[C@@H](Nc4ncc(Cl)c(OC)n4)C3)c2C1` the IC50 [2] was 0.0761 µM.
`C=CC(=O)N1Cc2ncnc(N3CC[C@@H](Nc4ncc(Cl)c(OC)n4)C3)c2C1` showed an IC50 [2] of 0.343 µM and an IC50 (SUM149PT) of 0.509 µM.
In the case of `C=CC(=O)[C@H]1CC[C@H](C(=O)N2CC[C@@H](Nc3ncc(Cl)c(OC)n3)C2)CC1`, the IC50 (CDK12/Cyclin K) is reported as 3.74 µM and the IC50 [2] is reported as 2.74 µM.
With `C=CC(=O)N1CCc2c(nc(N3CCN(C)C(=O)C3)nc2N2CC[C@@H](Nc3ncc(Cl)c(OC)n3)C2)C1` the IC50 (SUM149PT) was 0.276 µM.
Compound `C=CC(=O)N1CCc2c(ccnc2N2CC[C@@H](Nc3ncc(Cl)c(OC)n3)C2)C1` has an IC50 [2] of 0.107 µM and an IC50 (SUM149PT) of 0.317 µM.
